Legend:
satellite cells [1] = test: Satellite cell (SC) number in tibialis anterior of treated mice (histological count or FACS cytometry); assay type: in vivo, mouse; settings: GR127935 in osmotic pump together with vortioxetine I.P 12 days; Tg:Pax7nGFP mice
Protocol: For satellite cell counting, only the tibialis anterior muscle was dissected and digested as described earlier, and the totality of the tube was analysed to assess the number of satellite cells per muscle. FACS analysis was done using a FACSasia (Beckman). All analyses and quantitation were performed using Summit v4.3 software from DakoCytomation and FloJo software. […]
In order to count the number of satellite cells, the tibialis anterior (TA) of Tg:Pax7nGFP mice were digested and analysed by FACS in placebo and vortioxetine (12 days, 20 mg/Kg) treated mice. […] After 3 weeks of vortioxetine treatment, the number of satellite cells was even higher (9351 satellite cells±706, p=0.0079) but no statistically significant differences were found between 12 days and 3 weeks of treatment (p=0.15).

Mdx mice = Mdx mice (Duchenne muscular dystrophy model), muscle histology; assay type: in vivo, mouse
Protocol: Tibialis anterior (TA) was carefully dissected and snap frozen in liquid-nitrogen-cooled isopentane for a few minutes and stored at −80° C. prior to cryosectioning (10 μm sections). Sections were kept at room temperature overnight before staining. Sections were then rehydrated in PBS for 10 minutes and fixed in 10% formalin for 3 minutes. The sections were then routinely stained with haematoxylin and eosin (HE) using an automated stain machine or manually with red sirius.
Immunostaining was performed on cryosections fixed with 4% paraformaldehyde (PFA EMS#15710) in cold PBS, permeabilized with 0.5% Triton X-100 20 min at room temperature, washed, and blocked with 10% BSA for 30 min. Sections were incubated with primary antibodies overnight at 4° C. (see Table 1 below) and with Alexa-conjugated secondary antibodies 1/250 and Hoechst for 45 minutes. Sections were then analysed using an automated axioscan (Zeiss) or inverted Observer.Z1 Apotome (Zeiss). For apoptosis assessment, cells were collected in 2% serum, spun on polyD-lysine (Sigma-Aldrich#P6407), and immediately fixed with PFA 4%.
The fiber size was also overall bigger in Mdx treated-animals (4.241±0.9 pixels in treated vs. 3.192±0.3 in placebo p=0.051) (FIG. 8b). […] The number of vessels increased in the treated mice (1459±327 vessels per mm^2) when compared to the placebo (942.4±113 vessels […], p=0.008) (FIG. 8e). […] This observation is in line with the decreased infiltration of inflammatory cells observed in the muscle (9.6±3.7 Gr1+ cells observed per section in the placebo vs. 4±2.4 Gr1+ cells in the treated mice p=0.04) (FIG. 8i).

satellite cells [2] = test: Satellite cell (SC) number in tibialis anterior of treated mice (histological count or FACS cytometry); assay type: in vivo, mouse; settings: for Number of SC: Tg:Pax7nGFP mice
vessels = test: Vessel number in tibialis anterior of treated mice (Flk1GFP/+ or CD31 immunostaining); assay type: in vivo, mouse; settings: GR127935 in osmotic pump together with vortioxetine I.P 12 days
cytokines [3] = test: Plasmatic cytokine levels by Luminex in treated mice; parameters: species or system mouse; settings: fluoxetine 6 weeks in vivo; vs placebo
Description: Snap frozen plasma samples (n=6 per condition) were thawed out, and supernatant was processed for Luminex® multiple cytokine and chemokine analysis (Bio-Plex® Pro™ Mouse Cytokine Standard 23-Plex, Group I and Standard 9-Plex, Group II). Normalization was done by sample weight of frozen muscle. […]

CD31 expressing cells = test: Ex vivo Matrigel angiogenesis assay (subcutaneous plugs); assay type: in vivo, mouse; settings: C57Bl/6 treated P.O for 6 weeks
Description: To further confirm the above results, an ex vivo Matrigel angiogenesis assay was used. To do so, a cold Matrigel was introduced subcutaneously, which solidifies and allows the penetration by host cells and the formation of new blood vessels in C57Bl/6 treated P.O for 6 weeks.

satellite cells [4] = test: BrdU cell division of satellite cells during treatment; assay type: in vivo, mouse; settings: BrdU during the entire per os treatment
Description: (a) Schematic representation of fluoxetine delivery and sacrifice time points. (b) Number of satellite cells per mm^2 on section. […] The arrows point to the satellite cells. […] (k-l) Representative image of a vessel (arrows) in the Matrigel plug detected by HE staining in placebo (k) or fluoxetine (l) treated mice. (m) Vessel length 4 days post-plating of Cytodex® beads covered with HUVEC. (n) Representative image of a Cytodex® bead 4 days-post plating in presence of placebo plasma. […] Using immunostainings and FACS cell sorting in Figures (p) to (v): (p) Number of Pax7GFP expressing cells per digested TA (expressed as an absolute number) counted by FACS. (q) Representative FACS profile of digested TA of TgPax7nGFP mouse. […] TA muscle was digested and cells were isolated by FACS, spined on a slide and immuno-stained against BrdU. (s) Percentage of BrdU+ cells in Tg:Pax7nGFP mice (n=3 per time point). […] Data are represented as mean±s.d. *P<0.05; **P<0.01; ***P<0.001. Scale bar represents 100 μm. For Figures (p) to (v): n=7 mice used per condition, except for BrdU experiments n=3 per time point. Data are represented as mean±s.d. **P<0.01. Scale bar represents 100 μm.

cytokines [5] = test: Plasmatic cytokine levels by Luminex after notexin injury; assay type: in vivo, mouse; settings: injured with fluoxetine treatment
Description: (§1) Snap frozen plasma samples (n=6 per condition) were thawed out, and supernatant was processed for Luminex® multiple cytokine and chemokine analysis (Bio-Plex® Pro™ Mouse Cytokine Standard 23-Plex, Group I and Standard 9-Plex, Group II). Normalization was done by sample weight of frozen muscle.

primary human myoblasts = test: Primary human myoblasts plated in plasma from treated mice; assay type: cell-based; settings: plasma from fluoxetine-treated mice
cytokines [6] = test: Plasmatic cytokine levels by Luminex in Mdx mice; assay type: in vivo, mouse; settings: fluoxetine P.O. 6 weeks
Description: as §1

[7] = test system: extensor digitorum longus (edl) fibers; test: Tension of isolated muscle fibers of mdx mice; assay type: in vivo, mouse; settings: fluoxetine treated mdx mice
Protocol: Small bundles of two to five fibers were manually isolated from the muscles as previously described. Chemical skinning was carried out using Triton X-100. Skinned fibers were mounted in the Displacement Measuring System KD 2300 (model 0.5 SU, Kaman Instrumentation, Colorado Springs, Colo., USA). To perform force measurements, skinned fiber preparations were incubated for 1 h in relaxing solution (pCa 9.0, low calcium content) containing 1% Triton X-100 (v/v) to solubilize the sarcolemma and the sarcoplasmic reticulum membranes, and were subsequently washed several times in relaxing solution without detergent. Fibres were adjusted to slack length and then stretched progressively until the tension developed became maximal. Isometric tension was recorded continuously using a chart recorder (model 1200, Linear, Reno, Nev., USA). The tension obtained was normalized to fibre cross-sectional area.
This was confirmed on soleus muscle (data not shown).

[8] = fluoxetine P.O. 6 weeks, Mdx mice

SMILES: COc1ccc(NC(=O)c2ccc(-c3ccc(-c4noc(C)n4)cc3C)cc2)cc1N1CCN(C)CC1 [GR127935]
- Number of SC (satellite cells [1]): 5540±411 SC per TA
- Beneficial effects of fluoxetine when co-treated with 5-HT1B inhibitor (Mdx mice; Mdx mice treated with fluoxetine and a 5-HT1B inhibitor): the beneficial effects were lost
- Number of SC (satellite cells [2]; GR127935 in osmotic pump together with fluoxetine P.O 6 weeks): 4674±1414 SC per TA
- Number of vessels (vessels): 928±207 vessels per mm^2

SMILES: CNCCC(Oc1ccc(C(F)(F)F)cc1)c1ccccc1 (stereo not shown) [fluoxetine]
- Levels of IL-1a, IL-1b, IL-2 and eotaxin (cytokines [3]): downregulated
- Levels of IL-4 and IL-13 (cytokines [3]): upregulated
- Number of CD31 expressing cells in Matrigel plugs (CD31 expressing cells): 72.9±22.6 CD31+ cells per mm^2
- SC population dividing (BrdU) (satellite cells [4]): 90%
- IL-6 level after injury (cytokines [5]): 2459 ± 920 pg/µL
- Differentiation 4 days post-plating vs placebo plasma (primary human myoblasts): faster differentiation
- Self-renewal of the cells 14 days post-plating vs placebo plasma (primary human myoblasts): higher self-renewal
- Fiber size (Mdx mice; [8]): 4.241±0.9 pixels
- Foci of necrotic fiber (necrotic area) (Mdx mice; [8]): 2890 ± 803 µm²
- Gr1+ cells in the muscle (Mdx mice; [8]): 4±2.4 cells per section
- Number of cycling satellite cells vs placebo (Mdx mice; [8]): decreased
- Number of regenerating foci vs placebo (Mdx mice; [8]): decreased
- Number of vessels (Mdx mice; [8]): 1459±327 vessels per mm^2
- Level of IL6 (cytokines [6]): 34.52 ± 21 pg/mL
- Level of IL10 (cytokines [6]): 99.6 ± 56 pg/mL
- Force increase of isolated single fibers of extensor digitorum longus (edl) [7]: 45%
- Number of SC by histological count (satellite cells [2]; fluoxetine 18 mg/kg, tibialis anterior, TgPax7nGFP mouse): 16.3±5.4 SC per mm^2
- Number of SC (satellite cells [2]; fluoxetine P.O 6 weeks and PBS in osmotic pump): 7283±2325 SC per TA
